Measurements published in patent US11352352B2, “Aminopyrimidine compound, preparation method therefor and use thereof” (BEIJING ADAMADLE BIOTECHNOLOGY LIMITED LIABILITY COMPANY, priority 2017, dated 2022).
pIC50: −log10 of the molar value.

Tests used:
P-gp = target: T1, P-gp (Homo sapiens, UniProt P08183); experiment: P-gp substrate evaluation experiment (MDCKII-MDR1 Transwell drug penetration test); assay type: in vitro ADME; conditions: dog, MDCK-MDR1, pH 7.4; read-out: ER (Efflux Ratio)
T1 construct: expressed in transfected cells; host or cells: MDCKII-MDR1 (MDCKII canine kidney cells expressing MDR1)
Description: P-gp Substrate Evaluation Experiment
Cell Culture • 1) High glucose DMEM medium containing L-glutamine was used and 10% fetal bovine serum, 0.1 mg/mL streptomycin and 0.6 mg/mL penicillin were added. • 2) MDCKII-MDR1 was cultured in a T-75 cell culture bottle. The incubator was set at the condition of 37° C., 5% CO2 and 95% relative humidity. Cells could be inoculated in Transwell when the cell confluence reached 70-90%. • 3) Before cell plant, 50 μL cell culture medium was added to each well in the upper chamber of the Transwell, and […] cell culture medium was added to the lower chamber of the Transwell.
Inoculation of MDCKII-MDR1 Cells • 1) Cell suspension was added to the upper chamber of the 96-well Transwell plate with […] each well, and the final inoculation density was 5.45×10^5 cells/cm^2. • 2) The medium was changed 48 hours after inoculation, the culture was carried out for 4-7 days, and the medium was changed every other day.
Evaluation of Cell Monolayer Integrity • 1) After 4-7 days of culture, MDCKII-MDR1 and MDKII should merge and differentiate completely. At this time, they could be applied to penetration test. • 2) The resistance of cell monolayer was measured by a resistance meter (Millipore, USA) and the resistance of each well was recorded. • 3) After finishing the detection, the Transwell plate was put back into the incubator. • 4) Resistance value was calculated: Resistance measured (ohms)×layer area (cm^2)=TEER value (ohm·cm^2)
If TEER value was less than 42 ohms·cm^2, the well can not be used for penetration testing.
Drug Penetration Test • 1) The MDCKII-MDR1 Transwell plate was taken out from the incubator. The cell monolayer was rinsed with HBSS buffer (25 mM HEPES, pH 7.4) twice and incubated for 30 minutes at 37° C. • 2) The transport rate of compounds from the top to the bottom was determined. […] 70 μL supernatant was drawn, diluted with equal volume of water and then subjected to LC-MS/MS analysis. All samples were prepared in three parallel ways. • 6) The cell monolayer integrity after 2-hour incubation was evaluated by leakage of fluorescent yellow, HBSS (25 mM HEPES, pH 7.4) was used to dilute the stock solution of fluorescent yellow till the final concentration was 100 μM. 100 μL fluorescent yellow solution was added to each well in the upper chamber of the Transwell plate and 300 μL HBSS (25 mM HEPES, pH 7.4) was added to each well in the lower chamber of the Transwell plate. After incubation at 37° C. for 30 minutes, 80 μL solution was drawn respectively from each well in the upper and lower chamber to a new 96-well plate. The fluorescence was determined at 485 nm as excitation wavelength and 530 nm as emission wavelength by using a microplate reader.
Data calculation was carried out through Excel, the apparent permeability index (Papp, cm/s) of compounds was calculated through the formula shown as follow: […]
wherein, the membrane area in the formula is the membrane area of Transwell-96 plate (0.143 cm^2); the unit of incubation time is second (s).
Efflux ratio was calculated through the formula shown as follow: […]

A-431 = experiment: Cell proliferation inhibition experiment, CellTiter-Glo (CTG) method; assay type: cell-based; conditions: Homo sapiens, A-431, 72 h, A-431 cells, 3 days
Procedure, shortened: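 Luminescent ATP read-out (CellTiter-Glo) after 3-day compound exposure at 37 °C; a T0 plate was read on the day of dosing. Nine concentrations, 3-fold steps, triplicate wells: A-431 from 30 μM, NCI-H1975 and PC-9 from 1.111 μM. IC50 by non-linear S-curve regression.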

PC-9 = experiment: as above; assay type: cell-based; conditions: Homo sapiens, PC-9, 72 h, PC-9 cells, 3 days
Procedure, shortened: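 Cells in log-phase growth (viability above 90% by trypan blue) were seeded at 90 μL per well in black-walled, clear-bottom 96-well plates and incubated overnight at 37° C., 5% CO2. A T0 plate was read the next day. Test compounds were added at nine concentrations in triplicate with a solvent control. Viability was measured by CellTiter-Glo luminescence on EnVision, and IC50 came from non-linear S-curve fitting in GraphPad Prism 5.0.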

NCI-H1975 = experiment: as above; assay type: cell-based; conditions: for pIC50: Homo sapiens, NCI-H1975, 72 h, NCI-H1975 cells, CTG, 3 days; for A-431/NCI-H1975 Selectivity: ratio of A-431 IC50 to NCI-H1975 IC50
Procedure, shortened: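 NCI-H1975 cells with viability above 90% by trypan blue were seeded at 90 μL per well in black 96-well plates and incubated overnight at 37° C., 5% CO2. Compounds were added at nine concentrations in triplicate, and viability was measured with CellTiter-Glo luminescence on EnVision. IC50 came from non-linear S-curve fitting in GraphPad Prism 5.0.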

T1 sequence (P08183 whole entry): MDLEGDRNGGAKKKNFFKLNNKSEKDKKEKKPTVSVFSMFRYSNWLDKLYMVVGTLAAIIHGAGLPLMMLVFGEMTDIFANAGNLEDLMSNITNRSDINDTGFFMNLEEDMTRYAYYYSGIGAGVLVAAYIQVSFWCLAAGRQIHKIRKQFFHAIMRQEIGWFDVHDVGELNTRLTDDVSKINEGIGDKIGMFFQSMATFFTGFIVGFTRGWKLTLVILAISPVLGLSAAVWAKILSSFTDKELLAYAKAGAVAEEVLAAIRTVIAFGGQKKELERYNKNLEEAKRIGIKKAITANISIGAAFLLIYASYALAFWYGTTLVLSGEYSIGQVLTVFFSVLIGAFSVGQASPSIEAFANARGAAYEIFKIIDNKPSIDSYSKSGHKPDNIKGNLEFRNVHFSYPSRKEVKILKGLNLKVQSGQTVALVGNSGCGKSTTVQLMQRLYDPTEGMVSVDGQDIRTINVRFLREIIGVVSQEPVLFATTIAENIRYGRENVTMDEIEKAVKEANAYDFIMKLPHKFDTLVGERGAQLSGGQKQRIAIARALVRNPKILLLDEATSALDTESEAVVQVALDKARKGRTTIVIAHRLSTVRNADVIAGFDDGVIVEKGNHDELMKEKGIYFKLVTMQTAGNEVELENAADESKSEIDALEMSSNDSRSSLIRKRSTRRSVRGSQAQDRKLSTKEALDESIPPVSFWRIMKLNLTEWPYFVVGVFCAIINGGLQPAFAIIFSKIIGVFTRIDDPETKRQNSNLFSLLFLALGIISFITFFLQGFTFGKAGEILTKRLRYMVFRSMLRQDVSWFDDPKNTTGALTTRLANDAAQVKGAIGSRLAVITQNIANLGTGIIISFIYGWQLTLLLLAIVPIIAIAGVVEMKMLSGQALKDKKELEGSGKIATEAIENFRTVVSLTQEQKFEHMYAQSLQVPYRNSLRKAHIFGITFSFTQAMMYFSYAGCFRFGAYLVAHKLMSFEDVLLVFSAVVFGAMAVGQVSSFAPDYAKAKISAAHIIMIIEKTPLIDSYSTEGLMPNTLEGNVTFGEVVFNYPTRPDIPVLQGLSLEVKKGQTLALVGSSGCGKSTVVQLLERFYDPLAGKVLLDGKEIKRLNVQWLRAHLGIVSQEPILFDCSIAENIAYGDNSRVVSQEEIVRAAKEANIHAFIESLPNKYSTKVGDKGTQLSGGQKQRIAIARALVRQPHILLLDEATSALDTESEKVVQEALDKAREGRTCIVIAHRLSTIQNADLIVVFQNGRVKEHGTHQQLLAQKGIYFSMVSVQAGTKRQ

**Q.** Which results are given for `C=CC(=O)Nc1cc(Nc2nccc(-c3ccc4c(cnn4C)c3)n2)c(OC)cc1N1CCC(N2CCCC2)CC1` [compound 68]?
**A.** efflux ratio at 2 h (P-gp): 8.98; pIC50 (A-431): 6.04; pIC50 (PC-9): 7.82; pIC50 (NCI-H1975): 7.83; A-431/NCI-H1975 Selectivity (NCI-H1975): 62.7

**Q.** Which results are given for `C=CC(=O)Nc1cc(Nc2cc(-c3ccc4c(cnn4C)c3)ncn2)c(OC)cc1N1CC(C)N(C)C(C)C1` (stereo not drawn) [compound 23]?
**A.** efflux ratio at 2 h (P-gp): 4.28; pIC50 (A-431): 6.21; pIC50 (PC-9): 8.05; pIC50 (NCI-H1975): 7.86; A-431/NCI-H1975 Selectivity (NCI-H1975): 45.0

**Q.** Which results are given for `C=CC(=O)Nc1cc(Nc2cc(-c3ccc4c(cnn4C)c3)ncn2)c(OC(F)F)cc1N1CCC(N(CC)CC)CC1` [compound 168]?
**A.** efflux ratio at 2 h (P-gp): 23.1; pIC50 (A-431): 6.23; pIC50 (PC-9): 7.67; pIC50 (NCI-H1975): 8.17; A-431/NCI-H1975 Selectivity (NCI-H1975): 85.9

**Q.** What does the source list for `C=CC(=O)Nc1cc(Nc2cc(-c3ccc4c(cnn4C)c3)ncn2)c(OC)cc1N1CCN(CCOC)CC1` [compound 99]?
**A.** efflux ratio at 2 h (P-gp): 1.54; pIC50 (A-431): 6.05; pIC50 (PC-9): 7.36; pIC50 (NCI-H1975): 8.01; A-431/NCI-H1975 Selectivity (NCI-H1975): 90.4

**Q.** What does the source list for `C=CC(=O)Nc1cc(Nc2cc(-c3ccc4c(cnn4C)c3)ncn2)c(OC)cc1N(C)C1CCN(C2CCN(C)CC2)CC1` [compound 70]?
**A.** efflux ratio at 2 h (P-gp): 41.4; pIC50 (A-431): 5.93; pIC50 (PC-9): 7.83; pIC50 (NCI-H1975): 7.75; A-431/NCI-H1975 Selectivity (NCI-H1975): 66.1

**Q.** How did the efflux ratio at 2 h (P-gp) turn out when `C=CC(=O)Nc1cc(Nc2cc(-c3ccc4c(cnn4C)c3)ncn2)c(OC)cc1N(C)CCN1CCN(C)CC1` [compound 60] was run?
**A.** 6.49

**Q.** What about the pIC50 (A-431) of the same compound?
**A.** 5.64

**Q.** And the pIC50 (PC-9)?
**A.** 8.02

**Q.** And the pIC50 (NCI-H1975)?
**A.** 7.97

**Q.** And the “A-431/NCI-H1975 Selectivity” value (NCI-H1975)?
**A.** 217.0

**Q.** Which results are given for `C=CC(=O)Nc1cc(Nc2cc(-c3ccc4c(cnn4C)c3)ncn2)c(OC)cc1N1CCC(N2CCCCC2)CC1` [compound 144]?
**A.** efflux ratio at 2 h (P-gp): 11.6; pIC50 (A-431): 6.24; pIC50 (PC-9): 7.79; pIC50 (NCI-H1975): 8.17; A-431/NCI-H1975 Selectivity (NCI-H1975): 84.1

**Q.** Which results are given for `C=CC(=O)Nc1cc(Nc2cc(-c3ccc4cnn(C)c4c3)ncn2)c(OC)cc1N1CCC(N2CCCC2)CC1` [compound 158]?
**A.** efflux ratio at 2 h (P-gp): 15.3; pIC50 (A-431): 6.17; pIC50 (PC-9): 8.31; pIC50 (NCI-H1975): 8.03; A-431/NCI-H1975 Selectivity (NCI-H1975): 72.4

**Q.** Which results are given for `C=CC(=O)Nc1cc(Nc2cc(-c3ccc4cnn(C)c4c3)ncn2)c(OC)cc1N(C)CCN(C)CC` [compound 180]?
**A.** efflux ratio at 2 h (P-gp): 3.07; pIC50 (A-431): 6.05; pIC50 (PC-9): 8.42; pIC50 (NCI-H1975): 7.60; A-431/NCI-H1975 Selectivity (NCI-H1975): 35.6

**Q.** With `COc1cc(N(C)CCN(C)C)c(NC(=O)/C=C/CN(C)C)cc1Nc1cc(-c2ccc3c(cnn3C)c2)ncn1` [compound 131] as the compound, how does the efflux ratio at 2 h (P-gp) read?
**A.** 51.7

**Q.** What about the pIC50 (A-431) of the same compound?
**A.** 6.24

**Q.** And the pIC50 (PC-9)?
**A.** 7.83

**Q.** What about the pIC50 (NCI-H1975) of the same compound?
**A.** 8.02

**Q.** And the “A-431/NCI-H1975 Selectivity” value (NCI-H1975)?
**A.** 60.2

**Q.** With `C=CC(=O)Nc1cc(Nc2cc(-c3ccc4cnn(C)c4c3)ncn2)c(OC)cc1N1CCC(N2C[C@@H](C)O[C@@H](C)C2)CC1` [compound 155] as the compound, how does the efflux ratio at 2 h (P-gp) read?
**A.** 0.93

**Q.** And the pIC50 (A-431)?
**A.** 6.06

**Q.** What about the pIC50 (PC-9) of the same compound?
**A.** 8.22

**Q.** And the pIC50 (NCI-H1975)?
**A.** 7.87

**Q.** And the “A-431/NCI-H1975 Selectivity” value (NCI-H1975)?
**A.** 64.2

**Q.** `C=CC(=O)Nc1cc(Nc2cc(-c3ccc4cnn(C)c4c3)ncn2)c(OC)cc1N1CCC(N2CCCCC2)CC1` [compound 179] was tested. Which efflux ratio at 2 h (P-gp) did it give?
**A.** 17.1

**Q.** What about the pIC50 (A-431) of the same compound?
**A.** 6.01

**Q.** And the pIC50 (PC-9)?
**A.** 8.54

**Q.** What about the pIC50 (NCI-H1975) of the same compound?
**A.** 7.79

**Q.** And the “A-431/NCI-H1975 Selectivity” value (NCI-H1975)?
**A.** 60.7
